Data: PubChem BioAssay AID2060483 (Molecular Pharmacology Branch, DTP, NCI, 2025)

Tested on: K24384-001-R-PDC complex spheroids, viability
Assay: Anticancer human tumor K24384-001-R-PDC patient-derived pancreatic adenocarcinoma cell line growth inhibition [GQUAD]
Details: for IC50: curve of first compound; for viability, T/C: stronger effect = lower value
Procedure, shortened: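 Multi-cell-type spheroids of tumor cells with HUVEC and mesenchymal stem cells, treated with drug combinations. Concentrations descend in half-log steps from near clinical Cmax, or from 10 microM where Cmax is unknown; viability read-out.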

[1] = second compound 0.0316 µM, first compound 0.0316 µM
[2] = second compound 0.0316 µM, first compound 0.316 µM
[3] = second compound 0.1 µM, first compound 0.0316 µM
[4] = second compound 0.1 µM, first compound 0.316 µM
[5] = second compound 0.316 µM, first compound 0.0316 µM
[6] = second compound 0.316 µM, first compound 0.316 µM
[7] = second compound 1 µM, first compound 0.0316 µM
[8] = second compound 1 µM, first compound 0.316 µM
[9] = second compound 3.16 µM, first compound 0.0316 µM
[10] = second compound 3.16 µM, first compound 0.316 µM
[11] = second compound 10 µM, first compound 0.0316 µM
[12] = second compound 10 µM, first compound 0.316 µM
[13] = second compound 0.0316 µM, first compound 0.000999 µM
[14] = second compound 0.0316 µM, first compound 0.00316 µM
[15] = second compound 0.0316 µM, first compound 0.00999 µM
[16] = second compound 0.0316 µM, first compound 0.0999 µM
[17] = second compound 0.1 µM, first compound 0.000999 µM
[18] = second compound 0.1 µM, first compound 0.00316 µM
[19] = second compound 0.1 µM, first compound 0.00999 µM
[20] = second compound 0.1 µM, first compound 0.0999 µM
[21] = second compound 0.316 µM, first compound 0.000999 µM
[22] = second compound 0.316 µM, first compound 0.00316 µM
[23] = second compound 0.316 µM, first compound 0.00999 µM
[24] = second compound 0.316 µM, first compound 0.0999 µM
[25] = second compound 1 µM, first compound 0.000999 µM
[26] = second compound 1 µM, first compound 0.00316 µM
[27] = second compound 1 µM, first compound 0.00999 µM
[28] = second compound 1 µM, first compound 0.0999 µM
[29] = second compound 3.16 µM, first compound 0.000999 µM
[30] = second compound 3.16 µM, first compound 0.00316 µM
[31] = second compound 3.16 µM, first compound 0.00999 µM
[32] = second compound 3.16 µM, first compound 0.0999 µM
[33] = second compound 10 µM, first compound 0.000999 µM
[34] = second compound 10 µM, first compound 0.00316 µM
[35] = second compound 10 µM, first compound 0.00999 µM
[36] = second compound 10 µM, first compound 0.0999 µM
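Also: spheroids exposed to compounds for seven days.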

## C=CC(=O)N1CCN(c2nc(=O)n(-c3c(C)ccnc3C(C)C)c3nc(-c4c(O)cccc4F)c(F)cc23)C(C)C1 (stereo unspecified) + Cc1[nH]c2ccc(F)cc2c1-c1nc2c3cccnc3c3ncccc3c2[nH]1
Second compound 0.0316 µM
  IC50: > 10000 nM
Second compound 0.1 µM
  IC50: > 10000 nM
Second compound 0.316 µM
  IC50: > 10000 nM
Second compound 1 µM
  IC50: > 10000 nM
Second compound 3.16 µM
  IC50: > 10000 nM
Second compound 10 µM
  IC50: > 10000 nM
[1]
  viability, T/C: 111%
Second compound 0.0316 µM, first compound 0.1 µM
  viability, T/C: 78.9%
[2]
  viability, T/C: 104%
Second compound 0.0316 µM, first compound 1 µM
  viability, T/C: 101%
Second compound 0.0316 µM, first compound 3.16 µM
  viability, T/C: 111%
Second compound 0.0316 µM, first compound 10 µM
  viability, T/C: 88.3%
[3]
  viability, T/C: 96%
Second compound 0.1 µM, first compound 0.1 µM
  viability, T/C: 96.8%
[4]
  viability, T/C: 95%
Second compound 0.1 µM, first compound 1 µM
  viability, T/C: 117%
Second compound 0.1 µM, first compound 3.16 µM
  viability, T/C: 106%
Second compound 0.1 µM, first compound 10 µM
  viability, T/C: 77.4%
[5]
  viability, T/C: 110%
Second compound 0.316 µM, first compound 0.1 µM
  viability, T/C: 92.8%
[6]
  viability, T/C: 95.2%
Second compound 0.316 µM, first compound 1 µM
  viability, T/C: 119%
Second compound 0.316 µM, first compound 3.16 µM
  viability, T/C: 101%
Second compound 0.316 µM, first compound 10 µM
  viability, T/C: 83.3%
[7]
  viability, T/C: 92.8%
Second compound 1 µM, first compound 0.1 µM
  viability, T/C: 105%
[8]
  viability, T/C: 99.5%
Second compound 1 µM, first compound 1 µM
  viability, T/C: 103%
Second compound 1 µM, first compound 3.16 µM
  viability, T/C: 96.2%
Second compound 1 µM, first compound 10 µM
  viability, T/C: 70.1%
[9]
  viability, T/C: 71.7%
Second compound 3.16 µM, first compound 0.1 µM
  viability, T/C: 74.8%
[10]
  viability, T/C: 71.2%
Second compound 3.16 µM, first compound 1 µM
  viability, T/C: 84.4%
Second compound 3.16 µM, first compound 3.16 µM
  viability, T/C: 79.2%
Second compound 3.16 µM, first compound 10 µM
  viability, T/C: 67.1%
[11]
  viability, T/C: 66%
Second compound 10 µM, first compound 0.1 µM
  viability, T/C: 63.7%
[12]
  viability, T/C: 65.7%
Second compound 10 µM, first compound 1 µM
  viability, T/C: 72.3%
Second compound 10 µM, first compound 3.16 µM
  viability, T/C: 80.5%
Second compound 10 µM, first compound 10 µM
  viability, T/C: 60.8%

## CC[C@@]1(O)C(=O)OCc2c1cc1n(c2=O)Cc2cc3c(CN(C)C)c(O)ccc3nc2-1 + Cc1[nH]c2ccc(F)cc2c1-c1nc2c3cccnc3c3ncccc3c2[nH]1
Second compound 0.0316 µM
  IC50: > 316 nM
Second compound 0.1 µM
  IC50: 292 nM
Second compound 0.316 µM
  IC50: 233 nM
Second compound 1 µM
  IC50: 239 nM
Second compound 3.16 µM
  IC50: 139 nM
Second compound 10 µM
  IC50: 146 nM
[13]
  viability, T/C: 102%
[14]
  viability, T/C: 110%
[15]
  viability, T/C: 95.7%
[1]
  viability, T/C: 80.9%
[16]
  viability, T/C: 61.3%
[2]
  viability, T/C: 51.2%
[17]
  viability, T/C: 83.5%
[18]
  viability, T/C: 113%
[19]
  viability, T/C: 82.4%
[3]
  viability, T/C: 87.7%
[20]
  viability, T/C: 65.8%
[4]
  viability, T/C: 49%
[21]
  viability, T/C: 85.4%
[22]
  viability, T/C: 92.2%
[23]
  viability, T/C: 83.1%
[5]
  viability, T/C: 82.9%
[24]
  viability, T/C: 68.3%
[6]
  viability, T/C: 43.4%
[25]
  viability, T/C: 95.7%
[26]
  viability, T/C: 92.8%
[27]
  viability, T/C: 98.8%
[7]
  viability, T/C: 76.8%
[28]
  viability, T/C: 59%
[8]
  viability, T/C: 46.7%
[29]
  viability, T/C: 73.8%
[30]
  viability, T/C: 74.7%
[31]
  viability, T/C: 79.1%
[9]
  viability, T/C: 81.2%
[32]
  viability, T/C: 53.6%
[10]
  viability, T/C: 41%
[33]
  viability, T/C: 78.1%
[34]
  viability, T/C: 55%
[35]
  viability, T/C: 66.4%
[11]
  viability, T/C: 67.4%
[36]
  viability, T/C: 58.8%
[12]
  viability, T/C: 31.3%

## CCc1c2c(nc3ccc(O)cc13)-c1cc3c(c(=O)n1C2)COC(=O)[C@]3(O)CC + Cc1[nH]c2ccc(F)cc2c1-c1nc2c3cccnc3c3ncccc3c2[nH]1
Second compound 0.0316 µM
  IC50: 9.41 nM
Second compound 0.1 µM
  IC50: 11.4 nM
Second compound 0.316 µM
  IC50: 9.43 nM
Second compound 1 µM
  IC50: 11.7 nM
Second compound 3.16 µM
  IC50: 6.05 nM
Second compound 10 µM
  IC50: 4.02 nM
[13]
  viability, T/C: 96.3%
[14]
  viability, T/C: 62.2%
[15]
  viability, T/C: 53.5%
[1]
  viability, T/C: 38.9%
[16]
  viability, T/C: 29.3%
[2]
  viability, T/C: 27.2%
[17]
  viability, T/C: 79.8%
[18]
  viability, T/C: 72.7%
[19]
  viability, T/C: 51.5%
[3]
  viability, T/C: 33.1%
[20]
  viability, T/C: 31.3%
[4]
  viability, T/C: 21.4%
[21]
  viability, T/C: 72%
[22]
  viability, T/C: 61.3%
[23]
  viability, T/C: 47.5%
[5]
  viability, T/C: 41.8%
[24]
  viability, T/C: 28.3%
[6]
  viability, T/C: 23.7%
[25]
  viability, T/C: 70.6%
[26]
  viability, T/C: 57.1%
[27]
  viability, T/C: 51.5%
[7]
  viability, T/C: 42.2%
[28]
  viability, T/C: 39.9%
[8]
  viability, T/C: 26.8%
[29]
  viability, T/C: 65%
[30]
  viability, T/C: 55.5%
[31]
  viability, T/C: 41.3%
[9]
  viability, T/C: 38.1%
[32]
  viability, T/C: 30.8%
[10]
  viability, T/C: 13.7%
[33]
  viability, T/C: 60.4%
[34]
  viability, T/C: 48.9%
[35]
  viability, T/C: 43.8%
[11]
  viability, T/C: 28.4%
[36]
  viability, T/C: 15.1%
[12]
  viability, T/C: 11%
